The source of these data is PubChem BioAssay AID1648 (Sanford-Burnham Center for Chemical Genomics, 2009).

In general, Kd refers to a measure of binding affinity in units of concentration.

The source made the active and inactive calls. The rule behind the calls is not given here.

The target in this experiment is Serine/threonine-protein kinase mTOR (Homo sapiens) (UniProt P42345). Put plainly: mTOR FRB domain ligand binding – biophysical, NMR (AID 1648). The conditions noted are these: NMR binding to FRB domain, chemical shift.
Serine/threonine-protein kinase mTOR (Homo sapiens), sequence (P42345 2015-2114): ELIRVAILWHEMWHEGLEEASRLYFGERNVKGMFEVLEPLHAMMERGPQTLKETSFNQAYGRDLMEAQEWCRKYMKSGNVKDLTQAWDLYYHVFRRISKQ
As for `O=C(Nc1ccon1)c1csc2ccccc12`, the Kd is > 4 mM (inactive). As to `Cc1nn2c(nc1=O)SCC(c1ccccc1)=N2`, the Kd is > 4 mM (inactive). Take `O=c1c(O)c(-c2ccc(O)cc2O)oc2cc(O)cc(O)c12`: the Kd was > 4 mM (inactive). Regarding `O=C1Cc2ccccc2N1c1ccccc1`, the Kd was > 4 mM (inactive). With `Cc1ccc(-c2nc(N)n(C(=O)c3cccnc3)n2)cc1` the figure was > 4 mM (inactive); with `COc1ccc(C(=O)NC2=NCCS2)cc1OC`, > 4 mM (inactive); with `CCN(CC)C(=O)c1n[nH]c(=O)c2ccccc12`, > 4 mM (inactive). Under `Cc1cc(O)c2c(c1O)C(=O)c1c(O)cc(C)c(O)c1C2=O` stands > 4 mM (inactive); under `c1ccn(Cc2ccncc2)c1`, > 4 mM (inactive). Take `Cc1nn2c(=O)/c(=C/c3cccc(F)c3)sc2nc1=O`: the Kd is > 4 mM (inactive). Consider `CC(=O)Nc1ccc(NC(C)=O)cc1`, for which the Kd was > 4 mM (inactive).

For the compound `Cc1c(C)[n+](=O)c(-c2cccs2)c(C)n1[O-]`, the Kd was > 4 mM (inactive). Take `COc1ccc(C(=O)NNC(=S)NC(C)=O)cc1`: the Kd is > 4 mM (inactive).

On to `COc1cc(CNC(=O)CCCC/C=C/C(C)C)ccc1O`, for which the Kd was > 4 mM (inactive). Under `CNCc1ccco1` stands > 4 mM (inactive); under `CCN(CC)c1nc2n(c(=O)n1)CCO2`, > 4 mM (inactive); under `CC1(c2ccncc2)NC(=O)NC1=O` (stereo not given), > 4 mM (inactive). With `COC(=O)c1c[nH]c2ccccc12` the figure was > 4 mM (inactive); with `O=C(O)CC1C(=O)NCCN1Cc1ccccc1` (stereo not given), > 4 mM (inactive); with `NC(=O)CSc1ccc(Br)cc1`, > 4 mM (inactive). `CCNS(=O)(=O)c1ccc(OC)c(C)c1`: the Kd is > 4 mM (inactive). Under `O=C(c1ccco1)N1C(=O)c2cccc3cccc1c23` stands > 4 mM (inactive); under `CC(=O)Nc1nc(C)c(C(C)=O)s1`, > 4 mM (inactive); under `CC(C)=NNC(=O)c1ccccc1`, > 4 mM (inactive). For `COCCOc1nc2ccccc2nc1C`, the Kd is > 4 mM (inactive). Under `O=C(O)CNC(=O)c1ccc([N+](=O)[O-])cc1` stands > 4 mM (inactive); under `COc1ccc(S(=O)(=O)Nc2ccccn2)c(C)c1C`, > 4 mM (inactive). Under `O=C1NC(=O)C(=Cc2ccccc2)C(=O)N1` stands > 4 mM (inactive). Under `Cc1cc(=O)n(CC(C)C)c(O)c1C#N` stands > 4 mM (inactive); under `Cc1cc(C)n(S(=O)(=O)c2ccc(C)c(C)c2C)n1`, > 4 mM (inactive). On to `O=C1NC(=O)C(Cc2ccccc2)C(=O)N1`, for which the Kd is > 4 mM (inactive). Regarding `CSc1nc2nccc(N)n2n1`, the Kd is > 4 mM (inactive). Under `COc1ccccc1-c1nc(-c2ccc(C)nc2OC)no1` stands > 4 mM (inactive); under `Cc1ccccc1N1CCN(C(=O)C2CCCCC2)CC1`, > 4 mM (inactive).

As for `Cc1onc(-c2ccccc2)c1C(=O)Nc1ccncc1`, the Kd was > 4 mM (inactive). As for `c1ccc2[nH]c(SCc3cscn3)nc2c1`, the Kd is > 4 mM (inactive).

On to `NC(=O)C1CCN(c2ncnc(N)c2[N+](=O)[O-])CC1`, for which the Kd was > 4 mM (inactive).

`COc1ccc(-c2cc(=O)c3ccccc3o2)cc1`: the Kd was > 4 mM (inactive). Take `Clc1ncc2[nH]cnc2n1`: the Kd was > 4 mM (inactive).

As to `O=C(Nc1ccccc1C(F)(F)F)N1CCCCCC1`, the Kd was > 4 mM (inactive).

On to `C/C1=C/CC(C)(C)/C=C/C/C(C)=C/CC1`, for which the Kd was > 4 mM (inactive). With `C=C1CCC2C(CC2(C)C)C(=C)CC/C1=N/O` (stereo not given) the figure was > 4 mM (inactive); with `CSc1nc(C)c(Oc2ccccc2)c(=O)n1C`, > 4 mM (inactive); with `COc1ccc2c(c1O)-c1c(OC)c(OC)cc3c1[C@H](C2)N(C)CC3`, > 4 mM (inactive). Under `CC(=O)NC(=S)Nc1nc2ccccc2n1C(C)=O` stands > 4 mM (inactive). With `CNC(=S)Nc1ncn(Cc2cccc(F)c2)n1` the figure was > 4 mM (inactive); with `S=c1nc(Cc2ccccc2)[nH][nH]1`, > 4 mM (inactive); with `CCOc1ccc(C(=O)c2ccncc2)cc1`, > 4 mM (inactive).

Take `Nc1nncn1C(=O)c1c(Cl)cccc1Cl`: the Kd is > 4 mM (inactive). With `CC(=O)c1c(C)nc(-c2cccs2)n1O` the figure was > 4 mM (inactive). With `CC(=O)N1CCc2ccccc2C1CC(=O)O` (stereo not given) the figure was > 4 mM (inactive); with `COc1ccc2nc(NC(=O)c3cnccn3)sc2c1`, > 4 mM (inactive); with `COc1ccc(/C=C2/NC(=S)NC2=O)cc1`, > 4 mM (inactive). With `O=C1CCC(=O)N1c1nc2ccccc2s1` the figure was > 4 mM (inactive). With `O=C1CCNc2ccccc2N1`, the Kd is > 4 mM (inactive). In the case of `CCCCC(Nc1n[nH]c(=O)[nH]c1=O)C(=O)O` (stereo not given), the Kd was > 4 mM (inactive). Under `COc1ccccc1Nc1nncc(=O)[nH]1` stands > 4 mM (inactive).

`O=C(CSc1nc2ccccc2[nH]1)N1CCCCC1`: the Kd is > 4 mM (inactive). With `CC1=C(CCC(=O)O)c2cc3nc(cc4[nH]c(cc5[nH]c(cc1n2)c(C)c5C(C)O)c(C)c4C(C)O)C(C)=C3CCC(=O)O` (stereo not given) the figure was > 4 mM (inactive); with `O=c1nc(NCc2ccco2)sc2ncccc12`, > 4 mM (inactive). For `CC(NC(=O)C1CCCCC1)C(=O)NC1=NCCS1` (stereo not given), the Kd is > 4 mM (inactive). Under `Cn1c(SCC(N)=O)nnc1-c1cccnc1` stands > 4 mM (inactive); under `Cc1ccc(C(=O)N2CC(=O)NC(=O)C2)cc1`, > 4 mM (inactive); under `O=CN1CCN(C(=O)c2ccco2)CC1`, > 4 mM (inactive).

As to `CN1CCN(C(=O)c2ccccc2N)CC1`, the Kd was > 4 mM (inactive). Consider `O=[n+]1c(CO)c(CO)n([O-])c2ccccc21`, for which the Kd is > 4 mM (inactive).

Consider `O=C(O)c1ccc2c(c1)OCCCO2`, for which the Kd is > 4 mM (inactive).

As to `CC(=O)Nc1ccccc1OCC(N)=O`, the Kd is > 4 mM (inactive). In the case of `CC(=O)c1cc(-c2nc3ccccc3n2C)n(C)c1`, the Kd is > 4 mM (inactive). With `N=c1n(N)c2ccccc2n1CCO` the figure was > 4 mM (inactive). With `Cc1cc(C(=O)NN2CCOCC2)c(C)o1` the figure was > 4 mM (inactive); with `COC(=O)c1cc(-c2c[nH]c3ccccc23)n[nH]1`, > 4 mM (inactive); with `CC(=O)O[C@@H]1CC2C(C)(C)[C@H](O)C=C[C@]2(C)C2CC[C@]3(C)C(=CC(=O)O[C@H]3c3ccoc3)[C@@]21C` (stereo not given in full), > 4 mM (inactive). As to `Cc1ccc(NC(=O)CC2NCCNC2=O)c(C)c1` (stereo not given), the Kd is > 4 mM (inactive).

With `CCOC(=O)c1c(C)nc2c(C#N)cnn2c1C`, the Kd is > 4 mM (inactive). Turning to `Cc1ccc(NC(=O)C2CCN(S(C)(=O)=O)CC2)cc1`, the Kd is > 4 mM (inactive).

As for `CN(c1ccc(C(=O)N2CCCCC2)cc1)S(C)(=O)=O`, the Kd was > 4 mM (inactive).

In the case of `NS(=O)(=O)c1ccc(NC(=O)C(F)(F)F)cc1`, the Kd was > 4 mM (inactive).

For `O=C1CCC(c2cccs2)=NN1`, the Kd is > 4 mM (inactive).

As to `Cc1nn2c(-c3ccncc3)nnc2c2ccccc12`, the Kd is > 4 mM (inactive). With `O=C1CS/C(=N/S(=O)(=O)c2ccccc2)N1`, the Kd was > 4 mM (inactive).

With `NS(=O)(=O)c1ccc(NC(=O)c2cccs2)cc1`, the Kd was > 4 mM (inactive). With `Cc1ccc(-c2nc(-c3cccnc3)no2)cc1` the figure was > 4 mM (inactive); with `COC(=O)c1noc(C)c1C(C)=O`, > 4 mM (inactive); with `Cc1cc(=O)[nH]c(NCC(=O)O)n1`, > 4 mM (inactive). Regarding `Nc1cc(=O)[nH]c(SCC(=O)NCc2ccccc2)n1`, the Kd was > 4 mM (inactive). Under `CC(C)NC(=S)NCc1cnn(C)c1` stands > 4 mM (inactive); under `O=C1NC(=O)C(=Cc2cccs2)C(=O)N1`, > 4 mM (inactive). Consider `CSc1nc(O)cc(=O)[nH]1`, for which the Kd was > 4 mM (inactive). Regarding `CC(=O)Oc1ccc(N2C(=O)C3C4C=CC(O4)C3C2=O)cc1` (stereo not given), the Kd is > 4 mM (inactive).

Consider `COc1ccc(C(=O)CC(=O)O)c2c1C=CC(C)(C)O2`, for which the Kd is > 4 mM (inactive).

Consider `CC(=O)O[C@@H]1c2c(ccc3ccc(=O)oc23)OC(C)(C)[C@@H]1OC(=O)CC(C)C`, for which the Kd is > 4 mM (inactive). Under `Cc1nccc2c1[nH]c1ccccc12` stands > 4 mM (inactive). Under `COC(=O)c1cccnc1Oc1ccccc1` stands > 4 mM (inactive); under `CN(C)S(=O)(=O)c1ccccc1C#N`, > 4 mM (inactive). Take `CCc1ccccc1NC(=O)c1cnccn1`: the Kd is > 4 mM (inactive).

Regarding `CN(C(=O)c1cc2cccnc2n(C)c1=O)c1ccccc1`, the Kd was > 4 mM (inactive). Take `CC1NC(C(=O)O)Cc2c1[nH]c1ccccc21` (stereo not given): the Kd is > 4 mM (inactive). With `CCOc1cc(S(=O)(=O)n2nc(C)cc2C)ccc1F` the figure was > 4 mM (inactive); with `CC(C)(C)NC(=O)CN1C(=O)c2ccccc2S1(=O)=O`, > 4 mM (inactive); with `CSc1nsc(SCc2cnc(C)nc2N)n1`, > 4 mM (inactive).

Take `Cc1cc(C)c2nncn2n1`: the Kd was > 4 mM (inactive). For `c1cnc(N2CCSCC2)nc1`, the Kd was > 4 mM (inactive). With `CC(=O)Oc1cc(-c2coc3cc(OC(C)=O)c(OC(C)=O)c(OC(C)=O)c3c2=O)cc(OC(C)=O)c1OC(C)=O` the figure was > 4 mM (inactive); with `N=C1/C(=C\c2ccccc2)C(=O)N=C2SC=NN12`, > 4 mM (inactive).
